In BigSolDB 2.1:

COc1c(O)cc2c(c1O)[C@@H]1O[C@H](CO)[C@@H](O)[C@H](O)[C@H]1OC2=O
solubility (mole fraction)
Conditions	298.15 K	303.15 K	308.15 K	313.15 K	318.15 K
in DMSO	0.0168	0.0182	0.0198	0.0212	0.0229
in water	7.5e-05	9.88e-05	0.000123	0.000151	0.000185
